A compilation of properties of binary mixtures (doi:10.1016/j.molliq.2020.112481)

Assay: xn = mol fraction of the nth substance listed
Conditions: 100 kPa

OCCO + CCCC[n+]1ccn(C)c1.O=S(=O)([O-])C(F)(F)F
x2 = 0
Conditions	speed of sound [m/s]	viscosity [mPa·s]
298.15 K	1655	16.39
308.15 K	1631.5	11.16
313.15 K	1619.7	9.34
318.15 K	1607.9	7.91
323.15 K	1596.1	6.75

CCCC[n+]1ccn(C)c1.O=S(=O)([O-])C(F)(F)F + OCCO
Conditions	speed of sound [m/s]	viscosity [mPa·s]
298.15 K, x1 = 0.1936	1517.5	17.41
298.15 K, x1 = 0.2985	1478.8	20.69
298.15 K, x1 = 0.3912	1456.1	23.59
298.15 K, x1 = 0.4999	1437.2	26.6
298.15 K, x1 = 0.6055	1423.5	29.8
298.15 K, x1 = 0.7966	1410.5	42
298.15 K, x1 = 0.9035	1404.8	57.9
298.15 K, x1 = 1	1393.2	82.4
303.15 K, x1 = 0.1936	1505.9	14.07
303.15 K, x1 = 0.2985	1467.3	16.81
303.15 K, x1 = 0.3912	1444.6	19.28
303.15 K, x1 = 0.6055	1412.2	24.5
303.15 K, x1 = 0.7966	1399.2	34.3
303.15 K, x1 = 0.9035	1393.6	47
303.15 K, x1 = 1	1382.8	66.7
308.15 K, x1 = 0.0926	1551.3	10.51
308.15 K, x1 = 0.1936	1494.4	11.7
308.15 K, x1 = 0.3912	1433.2	15.95
308.15 K, x1 = 0.6055	1400.9	20.86
308.15 K, x1 = 0.9035	1382.5	38.6
308.15 K, x1 = 1	1371.7	52.9
313.15 K, x1 = 0.0926	1539.6	8.82
313.15 K, x1 = 0.1936	1482.8	9.82
313.15 K, x1 = 0.3912	1421.9	13.48
313.15 K, x1 = 0.6055	1389.8	17.79
313.15 K, x1 = 0.7966	1376.9	24.6
313.15 K, x1 = 0.9035	1371.5	32.3
313.15 K, x1 = 1	1360.7	43.7
318.15 K, x1 = 0.1936	1471.4	8.3
318.15 K, x1 = 0.2985	1433.2	9.91
318.15 K, x1 = 0.3912	1410.7	11.51
318.15 K, x1 = 0.6055	1378.7	15.37
318.15 K, x1 = 0.6922	1371.2	17.42
318.15 K, x1 = 0.7966	1365.9	21.09
318.15 K, x1 = 0.9035	1360.5	27.3
318.15 K, x1 = 1	1349.9	36.3
323.15 K, x1 = 0.0926	1516.4	6.2
323.15 K, x1 = 0.2985	1421.9	8.4
323.15 K, x1 = 0.4999	1381	11.65
323.15 K, x1 = 0.6055	1367.7	13.42
323.15 K, x1 = 0.6922	1360.3	15.17
323.15 K, x1 = 0.9035	1349.7	23.24
323.15 K, x1 = 1	1338.8	30.6
